From US12593841B2, “Antimicrobial mixture containing 4-(3-ethoxy-4-hydroxyphenyl)butan-2-one and an arginate compound, and cosmetic composition containing same” (L'OREAL, priority 2017, dated 2026)
Blank lines part the entries; values can stand above or below the compound they belong to.

Key:
Format in all cases: cell-based
[1] = system: Staphylococcus aureus ATCC 6538; assay: MIC / synergy (FIC index) microplate growth test on Staphylococcus aureus
Excerpt: (§1) As regards the combinations tested, MICa with b and MICb with a are the respective concentrations of A and of B in the combinations which make it possible to obtain a microbial growth percentage of less than or equal to 25%.
(§2) When the FIC index value is less than or equal to 1, it is considered that the combination of test compounds has a synergistic effect.
The microbial strain Staphylococcus aureus ATCC 6538 and a double-concentration nutrient broth liquid culture medium were used.
(§3) A 96-well microplate at an incubation temperature of 32.5° C. is used.
(§4) The incubation time of the microplate for the three abovementioned strains is from 18 to 24 hours aerobically.
(§5) A 10% (weight/volume) stock solution was prepared by mixing 1 g of compound in 9 ml of aqueous 1‰ agar solution. Successive dilutions were made with the 1‰ agar solution. • Tests of compounds A and B alone
(§6) 50 μL of each of the daughter solutions obtained containing compound A or B are added to the microplate wells. 100 μl of Sabouraud liquid nutrient broth inoculated at double concentration with the strain Candida albicans and 50 μl of aqueous 1‰0 agar solution are also added thereto. • Tests of compounds A and B as a mixture
(§7) 50 μL of each of the daughter solutions obtained containing compound A and 50 μL of each of the daughter solutions obtained containing compound B are added to the microplate wells. 100 μl of Sabouraud liquid nutrient broth inoculated at double concentration with the strain Candida albicans are also added thereto.
(§8) A positive microbial growth control was also prepared. The positive microbial growth control corresponds to a mixture of 100 μl of aqueous 1‰ agar solution with 100 μl of Sabouraud liquid nutrient broth inoculated at double concentration with the strain Candida albicans in the absence of compounds A and B.
(§9) An absorbance control was performed in parallel on compounds A and B alone. This control corresponds to 100 μL of double concentration sterile Sabouraud liquid nutrient broth +100 μl of double concentration compound A or B.
(§10) In the three cases (absorbance control, growth control and test), the final volume present in each of the microplate wells is 200 μL.
(§11) The test as described above (tests, absorbance control and growth control) was performed again to test the combination A+B on the strains Staphylococcus aureus and Pseudomonas aeruginosa.

[2] = system: Candida albicans ATCC 10231; assay: MIC / synergy (FIC index) microplate growth test on Candida albicans
Excerpt: as §1, §2
The microbial strain Candida albicans ATCC 10231 and a double-concentration Sabouraud broth liquid culture medium were used.
as §3, §4, §5, §6, §7, §8, §9, §10
In the two cases (test and control), the inoculum represents the concentration of the strain Candida albicans present in the final volume of the wells (200 μL) and is between 2 and 6×10^5 cfu/ml of Candida albicans.

[3] = system: Pseudomonas aeruginosa ATCC 9027; assay: MIC / synergy (FIC index) microplate growth test on Pseudomonas aeruginosa
Excerpt: as §1, §2
The microbial strain Pseudomonas aeruginosa ATCC 9027 and a double-concentration nutrient broth liquid culture medium were used.
as §3, §4, §5, §6, §7, §8, §9, §10, §11

[4] = weight % of active material, growth <= 25%

% MIC of B alone [1, 4]: 0.0005%
% MIC of B alone [2, 4]: 0.005%
% MIC of B alone [3, 4]: 0.005%
Compound: CCCCCCCCCCCC(=O)N[C@@H](CCCNC(=N)N)C(=O)OCC.Cl [B, ethyl N-lauroyl arginate hydrochloride, reference compound]
microbial growth percentage ([1]; 0.00025 weight % B alone (0 A)): 71%
microbial growth percentage ([1]; 0.0005 weight % B alone (0 A)): 0%
microbial growth percentage ([2]; 0.0025 weight % B alone (0 A)): 28%
microbial growth percentage ([2]; 0.005 weight % B alone (0 A)): 9%
microbial growth percentage ([3]; 0.0025 weight % B alone (0 A)): 37%
microbial growth percentage ([3]; 0.005 weight % B alone (0 A)): 10%

% MIC of A alone [1, 4]: 0.5%
% MIC of A alone [2, 4]: 0.2%
% MIC of A alone [3, 4]: 2%
Compound: CCOc1cc(CCC(C)=O)ccc1O [A, 4-(3-ethoxy-4-hydroxyphenyl)butan-2-one]
microbial growth percentage ([1]; 0.125 weight % A alone (0 B)): 58%
microbial growth percentage ([1]; 0.25 weight % A alone (0 B)): 60%
microbial growth percentage ([1]; 0.5 weight % A alone (0 B)): 0%
microbial growth percentage ([2]; 0.025 weight % A alone (0 B)): 80%
microbial growth percentage ([2]; 0.05 weight % A alone (0 B)): 62%
microbial growth percentage ([2]; 0.1 weight % A alone (0 B)): 24%
microbial growth percentage ([2]; 0.2 weight % A alone (0 B)): 3%
microbial growth percentage ([3]; 0.125 weight % A alone (0 B)): 99%
microbial growth percentage ([3]; 0.25 weight % A alone (0 B)): 46%
microbial growth percentage ([3]; 0.5 weight % A alone (0 B)): 37%
microbial growth percentage ([3]; 1 weight % A alone (0 B)): 41%
microbial growth percentage ([3]; 2 weight % A alone (0 B)): 19%
